Test results: patent publication US6737383B1, “Herbicidal oxadiazolidines” (priority 1999, dated 2004)

Columns and labels:
[1] = system: sugar beet; assay: Test B pre/postemergence sugar beet; assay type: in vivo, Beta vulgaris
Outline: (§1)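 Herbicidal effect was estimated by eye on a ten-point control scale after plants spent twelve to sixteen days in a greenhouse following soil or foliar treatment. Foliar sprays targeted plants at one to four leaves; all doses were formulated in a non-phytotoxic solvent with surfactant.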

[2] = system: wheat; assay: Test B pre/postemergence wheat; assay type: in vivo, Triticum aestivum
Outline: as §1

[3] = system: crabgrass; assay: Test B pre/postemergence crabgrass; assay type: in vivo, Digitaria sanguinalis
Outline: as §1

[4] = system: soybean; assay: Test B pre/postemergence soybean; assay type: in vivo, Glycine max
Outline: as §1

[5] = system: pigweed; assay: Test B pre/postemergence pigweed; assay type: in vivo, Amaranthus retroflexus
Outline: as §1

[6] = system: wild oat; assay: Test B pre/postemergence wild oat; assay type: in vivo, Avena fatua
Outline: as §1

[7] = system: morningglory; assay: Test B pre/postemergence morningglory; assay type: in vivo, Ipomoea hederacea
Outline: as §1

[8] = system: cocklebur; assay: Test B pre/postemergence cocklebur; assay type: in vivo, Xanthium strumarium
Outline: as §1

[9] = system: blackgrass; assay: Test B pre/postemergence blackgrass; assay type: in vivo, Alopecurus myosuroides
Outline: as §1

[10] = system: bedstraw; assay: Test B pre/postemergence bedstraw; assay type: in vivo, Galium aparine
Outline: as §1

[11] = system: purple nutsedge; assay: Test B pre/postemergence purple nutsedge; assay type: in vivo, Cyperus rotundus
Outline: as §1

[12] = system: surinam grass; assay: Test B pre/postemergence surinam grass; assay type: in vivo, Brachiaria decumbens
Outline: as §1

[13] = system: velvetleaf; assay: Test B pre/postemergence velvetleaf; assay type: in vivo, Abutilon theophrasti
Outline: as §1

[14] = system: giant foxtail; assay: Test B pre/postemergence giant foxtail; assay type: in vivo, Setaria faberii
Outline: as §1

[15] = system: corn; assay: Test B pre/postemergence corn; assay type: in vivo, Zea mays
Outline: as §1

[16] = system: rape; assay: Test B pre/postemergence rape; assay type: in vivo, Brassica napus
Outline: as §1

[17] = Postemergence, Rate 62 g/ha, scale 0 to 10, 0 is no effect, 10 is complete control
[18] = Preemergence, Rate 125 g/ha, scale of 0 to 10 where 0 is no effect and 10 is complete control
[19] = Preemergence, Rate 250 g/ha, scale 0 (no effect) to 10 (complete control)
[20] = Rate 62 g/ha, Preemergence, scale 0 to 10
[21] = Rate 250 g/ha, Postemergence, scale 0 to 10, 0 is no effect, 10 is complete control
[22] = Rate 500 g/ha, Postemergence, scale 0 to 10, 0 is no effect, 10 is complete control
[23] = Rate 500 g/ha, Preemergence, scale 0 to 10 (0 no effect, 10 complete control)
[24] = Postemergence, Rate 125 g/ha, scale of 0 to 10 where 0 is no effect and 10 is complete control

Question: `Cc1nc(C(C)n2c(=O)on(C(=O)N(c3ccc(F)cc3)C(C)C)c2=O)sc1C` (stereo not shown) [Compound 757] was tested. Which “Plant response rating, Sugarbeets” value [1, 17] did it give?
Answer: 0

Question: And the “Plant response rating, Sugarbeets” value [1, 18]?
Answer: 0

Question: What about the “Sugarbeets plant response rating” value [1, 19] of the same compound?
Answer: 0

Question: And the “Sugarbeets plant response rating” value [1, 20]?
Answer: 0

Question: And the “Sugarbeets plant response rating” value [1, 21]?
Answer: 3

Question: And the “Sugarbeets plant response rating” value [1, 22]?
Answer: 3

Question: And the “Sugarbeets plant response rating” value [1, 23]?
Answer: 0

Question: What about the “Plant response rating, Wheat” value [2, 17] of the same compound?
Answer: 0

Question: And the “Plant response rating, Wheat” value [2, 18]?
Answer: 0

Question: What about the “Wheat plant response rating” value [2, 19] of the same compound?
Answer: 0

Question: And the “Wheat plant response rating” value [2, 20]?
Answer: 0

Question: What about the “Wheat plant response rating” value [2, 21] of the same compound?
Answer: 0

Question: And the “Wheat plant response rating” value [2, 22]?
Answer: 0

Question: And the “Wheat plant response rating” value [2, 23]?
Answer: 3

Question: And the “Plant response rating, Crabgrass” value [3, 17]?
Answer: 3

Question: And the “Crabgrass plant response rating” value [3, 24]?
Answer: 4

Question: What about the “Plant response rating, Crabgrass” value [3, 18] of the same compound?
Answer: 9

Question: What about the “Crabgrass plant response rating” value [3, 19] of the same compound?
Answer: 9

Question: And the “Crabgrass plant response rating” value [3, 20]?
Answer: 6

Question: What about the “Crabgrass plant response rating” value [3, 21] of the same compound?
Answer: 6

Question: What about the “Crabgrass plant response rating” value [3, 22] of the same compound?
Answer: 6

Question: What about the “Crabgrass plant response rating” value [3, 23] of the same compound?
Answer: 9

Question: What about the “Plant response rating, Soybean” value [4, 17] of the same compound?
Answer: 3

Question: And the “Plant response rating, Soybean” value [4, 18]?
Answer: 0

Question: And the “Soybean plant response rating” value [4, 19]?
Answer: 0

Question: And the “Soybean plant response rating” value [4, 20]?
Answer: 0

Question: And the “Soybean plant response rating” value [4, 21]?
Answer: 4

Question: What about the “Soybean plant response rating” value [4, 22] of the same compound?
Answer: 4

Question: And the “Soybean plant response rating” value [4, 23]?
Answer: 0

Question: And the “Plant response rating, Redroot pigweed” value [5, 17]?
Answer: 1

Question: And the “Redroot pigweed plant response rating” value [5, 24]?
Answer: 3

Question: What about the “Plant response rating, Redroot pigweed” value [5, 18] of the same compound?
Answer: 0

Question: What about the “Redroot pigweed plant response rating” value [5, 19] of the same compound?
Answer: 2

Question: And the “Redroot pigweed plant response rating” value [5, 20]?
Answer: 0

Question: And the “Redroot pigweed plant response rating” value [5, 21]?
Answer: 5

Question: What about the “Redroot pigweed plant response rating” value [5, 22] of the same compound?
Answer: 7

Question: What about the “Redroot pigweed plant response rating” value [5, 23] of the same compound?
Answer: 3

Question: What about the “Plant response rating, Wild oats” value [6, 17] of the same compound?
Answer: 0

Question: What about the “Plant response rating, Wild oats” value [6, 18] of the same compound?
Answer: 0

Question: What about the “Wild oats plant response rating” value [6, 19] of the same compound?
Answer: 2

Question: What about the “Wild oats plant response rating” value [6, 20] of the same compound?
Answer: 0

Question: What about the “Wild oats plant response rating” value [6, 21] of the same compound?
Answer: 0

Question: And the “Wild oats plant response rating” value [6, 22]?
Answer: 0

Question: What about the “Wild oats plant response rating” value [6, 23] of the same compound?
Answer: 5

Question: And the “Plant response rating, Morningglory” value [7, 17]?
Answer: 6

Question: And the “Morningglory plant response rating” value [7, 24]?
Answer: 6

Question: And the “Plant response rating, Morningglory” value [7, 18]?
Answer: 0

Question: And the “Morningglory plant response rating” value [7, 19]?
Answer: 0

Question: And the “Morningglory plant response rating” value [7, 20]?
Answer: 0

Question: What about the “Morningglory plant response rating” value [7, 21] of the same compound?
Answer: 7

Question: And the “Morningglory plant response rating” value [7, 22]?
Answer: 9

Question: What about the “Morningglory plant response rating” value [7, 23] of the same compound?
Answer: 0

Question: And the “Plant response rating, Cocklebur” value [8, 17]?
Answer: 0

Question: And the “Cocklebur plant response rating” value [8, 24]?
Answer: 0

Question: And the “Plant response rating, Cocklebur” value [8, 18]?
Answer: 0

Question: What about the “Cocklebur plant response rating” value [8, 19] of the same compound?
Answer: 0

Question: And the “Cocklebur plant response rating” value [8, 20]?
Answer: 0

Question: And the “Cocklebur plant response rating” value [8, 21]?
Answer: 2

Question: And the “Cocklebur plant response rating” value [8, 22]?
Answer: 2

Question: What about the “Cocklebur plant response rating” value [8, 23] of the same compound?
Answer: 0

Question: And the “Plant response rating, Blackgrass” value [9, 17]?
Answer: 0

Question: What about the “Blackgrass plant response rating” value [9, 24] of the same compound?
Answer: 0

Question: And the “Plant response rating, Blackgrass” value [9, 18]?
Answer: 2

Question: What about the “Blackgrass plant response rating” value [9, 19] of the same compound?
Answer: 3

Question: And the “Blackgrass plant response rating” value [9, 20]?
Answer: 1

Question: And the “Blackgrass plant response rating” value [9, 21]?
Answer: 3

Question: And the “Blackgrass plant response rating” value [9, 22]?
Answer: 4

Question: What about the “Blackgrass plant response rating” value [9, 23] of the same compound?
Answer: 7

Question: What about the “Bedstraw plant response rating” value [10, 24] of the same compound?
Answer: 0

Question: What about the “Plant response rating, Bedstraw” value [10, 18] of the same compound?
Answer: 0

Question: And the “Bedstraw plant response rating” value [10, 19]?
Answer: 0

Question: And the “Bedstraw plant response rating” value [10, 20]?
Answer: 0

Question: And the “Bedstraw plant response rating” value [10, 21]?
Answer: 0

Question: And the “Bedstraw plant response rating” value [10, 23]?
Answer: 0

Question: What about the “Plant response rating, Nutsedge” value [11, 17] of the same compound?
Answer: 0

Question: And the “Nutsedge plant response rating” value [11, 24]?
Answer: 0

Question: What about the “Plant response rating, Nutsedge” value [11, 18] of the same compound?
Answer: 0

Question: What about the “Nutsedge plant response rating” value [11, 19] of the same compound?
Answer: 0

Question: And the “Nutsedge plant response rating” value [11, 20]?
Answer: 0

Question: And the “Nutsedge plant response rating” value [11, 21]?
Answer: 0

Question: And the “Nutsedge plant response rating” value [11, 22]?
Answer: 0

Question: What about the “Nutsedge plant response rating” value [11, 23] of the same compound?
Answer: 0

Question: What about the “Plant response rating, B. signalgrass” value [12, 17] of the same compound?
Answer: 0

Question: What about the “B. signalgrass plant response rating” value [12, 24] of the same compound?
Answer: 0

Question: And the “B. signalgrass plant response rating” value ([12]; Preemergence, Rate 62 g/ha, scale of 0 to 10 where 0 is no effect and 10 is complete control)?
Answer: 0

Question: What about the “Plant response rating, B. signalgrass” value [12, 18] of the same compound?
Answer: 0

Question: What about the “B. signalgrass plant response rating” value [12, 19] of the same compound?
Answer: 2

Question: And the “B. signalgrass plant response rating” value [12, 21]?
Answer: 0

Question: What about the “B. signalgrass plant response rating” value [12, 22] of the same compound?
Answer: 1

Question: What about the “B. signalgrass plant response rating” value [12, 23] of the same compound?
Answer: 7

Question: And the “Plant response rating, Velvetleaf” value [13, 17]?
Answer: 0

Question: And the “Plant response rating, Velvetleaf” value [13, 18]?
Answer: 0

Question: What about the “Velvetleaf plant response rating” value [13, 19] of the same compound?
Answer: 0

Question: What about the “Velvetleaf plant response rating” value [13, 20] of the same compound?
Answer: 0

Question: And the “Velvetleaf plant response rating” value [13, 21]?
Answer: 3

Question: What about the “Velvetleaf plant response rating” value [13, 22] of the same compound?
Answer: 4

Question: What about the “Velvetleaf plant response rating” value [13, 23] of the same compound?
Answer: 0

Question: What about the “Plant response rating, Giant foxtail” value [14, 17] of the same compound?
Answer: 2

Question: What about the “Giant foxtail plant response rating” value [14, 24] of the same compound?
Answer: 2

Question: What about the “Plant response rating, Giant foxtail” value [14, 18] of the same compound?
Answer: 9

Question: What about the “Giant foxtail plant response rating” value [14, 19] of the same compound?
Answer: 9

Question: And the “Giant foxtail plant response rating” value [14, 20]?
Answer: 9

Question: And the “Giant foxtail plant response rating” value [14, 21]?
Answer: 5

Question: What about the “Giant foxtail plant response rating” value [14, 22] of the same compound?
Answer: 7

Question: And the “Giant foxtail plant response rating” value [14, 23]?
Answer: 9

Question: What about the “Plant response rating, Corn” value [15, 17] of the same compound?
Answer: 0

Question: And the “Corn plant response rating” value [15, 24]?
Answer: 0

Question: What about the “Plant response rating, Corn” value [15, 18] of the same compound?
Answer: 0

Question: What about the “Corn plant response rating” value [15, 19] of the same compound?
Answer: 0

Question: What about the “Corn plant response rating” value [15, 20] of the same compound?
Answer: 0

Question: And the “Corn plant response rating” value [15, 21]?
Answer: 0

Question: And the “Corn plant response rating” value [15, 22]?
Answer: 0

Question: What about the “Corn plant response rating” value [15, 23] of the same compound?
Answer: 0

Question: And the “Plant response rating, Rape” value [16, 17]?
Answer: 0

Question: And the “Rape plant response rating” value [16, 24]?
Answer: 0

Question: And the “Plant response rating, Rape” value [16, 18]?
Answer: 0

Question: What about the “Rape plant response rating” value [16, 19] of the same compound?
Answer: 0

Question: And the “Rape plant response rating” value [16, 20]?
Answer: 0

Question: And the “Rape plant response rating” value [16, 21]?
Answer: 0

Question: What about the “Rape plant response rating” value [16, 22] of the same compound?
Answer: 0

Question: And the “Rape plant response rating” value [16, 23]?
Answer: 0
